Target: T1, PDE4D: catalytic domain S316-V692 (Homo sapiens, UniProt Q08499)
T1 construct: pET15S PDE4D S316-V692-X; His6 (N, cleaved yes); thrombin cleavage site (N, cleaved yes); made in house; host or cells: E. coli BL21 (DE3) RIL
Test: PDE4 IC50 determination by Scintillation Proximity Assay (SPA), PDE4D catalytic domain
Assay type: biochemical
Details: [3H]cAMP SPA, 30 min at 30° C.
Experimental: IC50s were determined by Scintillation Proximity Assay (SPA). The principle of the assay is based on the fact that cAMP, the PDE4 substrate, binds weakly to Yittrium Silicate SPA beads, whereas AMP, the product of PDE4 hydrolysis binds strongly. Thus, the extent of PDE4 hydrolysis of a sample of [^3H]cAMP can be measured because only the [^3H]AMP produced by PDE4 hydrolysis will bind to the SPA beads and produce a scintillation signal.
[…] Enzyme was stored in 50% glycerol at −20°. See Example 144.
Compounds tested (see Tables 5 for compounds and results) were 3-fold serially diluted 11 times in DMSO from a starting concentration of 4 mM or 40 μM, depending on compound potency. 1 μl of each dilution was transferred into duplicate wells of a white polystyrene 384-well assay plate (Corning #3710). In addition to the compound dilutions, each assay plate contained control wells with 1 μl of DMSO (to define 0% enzyme inhibition) or 1 μl of 200 μM roflumilast (to define 100% enzyme inhibition). Using a Beckman FX robot, 10 μl of [^3H] cAMP (Amersham TRK559) at […] in assay buffer (50 mM Tris, pH 7.5; 8.3 mM MgCl; 1.7 mM EGTA; 0.01% BSA) was transferred to each assay well. Next, 10 μl of PDE4 enzyme in assay buffer was added and the plates were shaken for 30 s. at 1000 rpm to start the cAMP hydrolysis reaction. The concentrations of enzyme used were: PDE4B, 80 ng/ml; PDE4D, 4 ng/ml; PDE4B2, 2.5 μl of 50% glycerol stock/ml; PDE4D5 0.083 μl of 50% glycerol stock/ml. Assay plates were covered and incubated for 30 min. at 30° C. Reactions were stopped by robotic addition of 10 μl of 5 mg/ml SPA beads (Amersham RPNQ0013) in 18 mM ZnSO4. The assay plates were covered with clear plastic film, centrifuged for 1 min. at 1000 RPM to settle the SPA beads, and counted using a Wallac TriLux scintillation counter. IC50's were calculated from the raw assay data by non-linear regression curve fitting using the Assay Explorer software package from MDL.

T1 sequence (Q08499 380-756): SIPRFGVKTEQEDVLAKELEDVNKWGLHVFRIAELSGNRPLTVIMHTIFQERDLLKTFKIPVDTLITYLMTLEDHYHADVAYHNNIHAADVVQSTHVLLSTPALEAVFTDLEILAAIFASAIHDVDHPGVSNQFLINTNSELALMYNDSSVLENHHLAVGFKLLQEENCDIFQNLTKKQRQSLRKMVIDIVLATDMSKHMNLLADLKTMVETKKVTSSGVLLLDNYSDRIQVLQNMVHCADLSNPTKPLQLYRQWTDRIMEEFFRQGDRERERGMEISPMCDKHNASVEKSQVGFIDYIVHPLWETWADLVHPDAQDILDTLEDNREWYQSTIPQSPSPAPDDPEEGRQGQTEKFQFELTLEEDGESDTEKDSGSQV

With `CCOc1ccc2ccccc2c1C(=O)n1cc(-c2ccc(OC)c(OC)c2)c2cccnc21` [Compound 52, [3-(3,4-Dimethoxy-phenyl)-pyrrolo[2,3-b]pyridin-1-yl]-(2-ethoxy-naphthalen-1-yl)-methanone] the IC50 was ≤ 10 µM.
`CCOc1ccccc1C(=O)n1cc(-c2ccc(OC)c(OC)c2)c2cccnc21` [Compound 61, [3-(3,4-Dimethoxy-phenyl)-pyrrolo[2,3-b]pyridin-1-yl]-(2-ethoxy-phenyl)-methanone-amide] was tested, and the IC50 was ≤ 10 µM.

Reference: US7605168B2 (Plexxikon, Inc., priority 2004, dated 2009)
